This assay has as its system TNFα. In words: Inhibition of TNFα in vivo (LPS challenge, plasma TNFα ELISA). Conditions: female Balb/c mice, p.o., LPS 400 μg/kg IP 1 hour after compound, plasma 1.5 hours after LPS. How it is done:
Compounds are administered p.o. (30, 10, 3 and 1 mg/kg) to female Balb/c mice (6 mice/dose). 1 hour following compound administration at 4 doses (P.O. at volume of 0.1 mL/mouse; vehicle: 1% NaCMC/0.25% Tween-80 in water); mice are given an IP-injection of LPS at 400 μg/kg. 1.5 hours after LPS challenging, mice are anesthetized with isoflurane and blood is taken via cardiac puncture. TNFa-levels in the plasma are determined using ELISA kit from R&D Systems and dose response ED50 is determined.
The compound exemplified in Example 12 is tested essentially as described above and suppressed TNFα in vivo with an TMED50 of 1.0 mg/kg. The Threshold Minimum Effective Dose (TMED) 50 is the dose at which greater than or equal to 50% inhibition was achieved and statistically different from control/placebo.
(An ELISA detects its analyte on a solid surface through an enzyme-linked reagent.)

As for `CS(=O)(=O)O.Cc1ccc(-n2nc(C3(C)CC3)cc2NC(=O)Nc2cnc(OC3CCN(C(=O)C4(C)CC4)CC3)c3ccccc23)cc1` [Example 12, 1-{1-[1-(1-Methyl-cyclopropanecarbonyl)-piperidin-4-yloxy]-isoquinolin-4-yl}-3-[5-(1-methyl-cyclopropyl)-2-p-tolyl-2H-pyrazol-3-yl]-urea mesylate], the “TMED50, suppression of TNFα in vivo” value came to 1.0 mg/kg.
